# According to the supplement of paper PMC11208160:
# Assay: recombinant UMI read abundance after kanamycin selection (control-corrected) (log10(CPM+1)); higher = more efficient recombination; extreme values may be limits of the assay; sequences stand for … in AGTGCAGAGAAAATCGGCCAGTTTTCTCTGCCTGCAGTCCGCATGCCGTGGGACCCCTTGGGTTCTAACCTGTTGCCTAGATTTATGCAGCGGACTGCCTTTCTCCCAAAGTGATAAACCGG…AGGTTGGTTTCACT; site = the 11-nt donor
# Method in brief: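 In Escherichia coli, a pool of donor and donor-binding-loop pairs, each with a 12-nt UMI, was tested for the IS621 bridge recombinase. Plating was on IPTG (0.07 mM) plus kanamycin, or without selection, in two replicates. Recombinant UMIs were amplified by PCR across the donor–target junction and sequenced, and counts were reported as log10(CPM+1) after averaging and control-derived scaling.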
# 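Note: IS621 bridge recombinase in Escherichia coli cells against a fixed T5 target plasmid.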
row,Sequence,recombinant UMI read abundance (log10)
1,CGATCATCATGGACCGGTTTTCCCGGTAATCCGTATTTGCT (site CGATCATCTGT),0
2,CGATCATCATGGACCGGTTTTCCCGGTAATCCGTATTTGCT (site CGATCATCTTA),0
3,CGATCATCATGGACCGGTTTTCCCGGTAATCCGTATTTGCT (site CGATCATCTTG),0
4,CGATCATCATGGACCGGTTTTCCCGGTAATCCGTATTTGCT (site CGATCCACTAG),0.00991
5,CGATCATCATGGACCGGTTTTCCCGGTAATCCGTATTTGCT (site CGATCCTCTAC),0.00344
6,CGATCATCATGGACCGGTTTTCCCGGTAATCCGTATTTGCT (site CGATCCTCTAG),0
7,CGATCATCATGGACCGGTTTTCCCGGTAATCCGTATTTGCT (site CGATCCTCTCG),0.00562
8,CGATCATCATGGACCGGTTTTCCCGGTAATCCGTATTTGCT (site CGATCGCCTAG),0.00385
9,CGATCATCATGGACCGGTTTTCCCGGTAATCCGTATTTGCT (site CGATCGTCTAG),0
10,CGATCATCATGGACCGGTTTTCCCGGTAATCCGTATTTGCT (site CGATCGTCTAT),0
11,CGATCATCATGGACCGGTTTTCCCGGTAATCCGTATTTGCT (site CGATCGTCTGG),0
12,CGATCATCATGGACCGGTTTTCCCGGTAATCCGTATTTGCT (site CGATCTGCTAG),0
13,CGATCATCATGGACCGGTTTTCCCGGTAATCCGTATTTGCT (site CGATCTTCTAA),0
14,CGATCATCATGGACCGGTTTTCCCGGTAATCCGTATTTGCT (site CGATCTTCTAG),0
15,CGATCATCATGGACCGGTTTTCCCGGTAATCCGTATTTGCT (site CGATCTTCTTG),0
16,CGATCATCATGGACCGGTTTTCCCGGTAATCCGTATTTGCT (site CGATGACCTAG),0
17,CGATCATCATGGACCGGTTTTCCCGGTAATCCGTATTTGCT (site CGATGATCTAG),0
18,CGATCATCATGGACCGGTTTTCCCGGTAATCCGTATTTGCT (site CGATGATCTAT),0.00469
19,CGATCATCATGGACCGGTTTTCCCGGTAATCCGTATTTGCT (site CGATGATCTGG),0
20,CGATCATCATGGACCGGTTTTCCCGGTAATCCGTATTTGCT (site CGATGGTCTAG),0
21,CGATCATCATGGACCGGTTTTCCCGGTAATCCGTATTTGCT (site CGATTAGCTAG),0.0161
22,CGATCATCATGGACCGGTTTTCCCGGTAATCCGTATTTGCT (site CGATTATCTAA),0
23,CGATCATCATGGACCGGTTTTCCCGGTAATCCGTATTTGCT (site CGATTATCTAG),0

row,Sequence,recombinant UMI read abundance (log10)
1,CGATCATCATGGACCGGTTTTCCCGGTAATCCGTATTTGCT (site CGATTATCTTG),0
2,CGATCATCATGGACCGGTTTTCCCGGTAATCCGTATTTGCT (site CGATTTTCTAG),0
3,CGATCATCATGGACCGGTTTTCCCGGTAATCCGTATTTGCT (site CGCCCATCTAG),0.133
4,CGATCATCATGGACCGGTTTTCCCGGTAATCCGTATTTGCT (site CGCTAATCTAG),0
5,CGATCATCATGGACCGGTTTTCCCGGTAATCCGTATTTGCT (site CGCTCAACTAG),0
6,CGATCATCATGGACCGGTTTTCCCGGTAATCCGTATTTGCT (site CGCTCATCTAC),0.00488
7,CGATCATCATGGACCGGTTTTCCCGGTAATCCGTATTTGCT (site CGCTCATCTAG),0.295
8,CGATCATCATGGACCGGTTTTCCCGGTAATCCGTATTTGCT (site CGCTCATCTCG),0
9,CGATCATCATGGACCGGTTTTCCCGGTAATCCGTATTTGCT (site CGCTCCTCTAG),0
10,CGATCATCATGGACCGGTTTTCCCGGTAATCCGTATTTGCT (site CGGGCATCTAG),0
11,CGATCATCATGGACCGGTTTTCCCGGTAATCCGTATTTGCT (site CGGTCAGCTAG),0.0144
12,CGATCATCATGGACCGGTTTTCCCGGTAATCCGTATTTGCT (site CGGTCATCTAA),0.0171
13,CGATCATCATGGACCGGTTTTCCCGGTAATCCGTATTTGCT (site CGGTCATCTAG),0
14,CGATCATCATGGACCGGTTTTCCCGGTAATCCGTATTTGCT (site CGGTCATCTTG),0.00419
15,CGATCATCATGGACCGGTTTTCCCGGTAATCCGTATTTGCT (site CGGTCTTCTAG),0.0105
16,CGATCATCATGGACCGGTTTTCCCGGTAATCCGTATTTGCT (site CGGTTATCTAG),0
17,CGATCATCATGGACCGGTTTTCCCGGTAATCCGTATTTGCT (site CGTACATCTAG),1.61
18,CGATCATCATGGACCGGTTTTCCCGGTAATCCGTATTTGCT (site CGTTCACCTAG),0
19,CGATCATCATGGACCGGTTTTCCCGGTAATCCGTATTTGCT (site CGTTCATCTAG),1.53
20,CGATCATCATGGACCGGTTTTCCCGGTAATCCGTATTTGCT (site CGTTCATCTAT),0
21,CGATCATCATGGACCGGTTTTCCCGGTAATCCGTATTTGCT (site CGTTCATCTGG),0
22,CGATCATCATGGACCGGTTTTCCCGGTAATCCGTATTTGCT (site CGTTCGTCTAG),0.0117
23,CGATCATCATGGACCGGTTTTCCCGGTAATCCGTATTTGCT (site CGTTGATCTAG),0

row,Sequence,recombinant UMI read abundance (log10)
1,CGATCATCATGGACCGGTTTTCCCGGTAATCCGTATTTGCT (site CTACCATCTAG),1.69
2,CGATCATCATGGACCGGTTTTCCCGGTAATCCGTATTTGCT (site CTATAATCTAG),1.08
3,CGATCATCATGGACCGGTTTTCCCGGTAATCCGTATTTGCT (site CTATCAACTAG),0
4,CGATCATCATGGACCGGTTTTCCCGGTAATCCGTATTTGCT (site CTATCATCTAC),0.00862
5,CGATCATCATGGACCGGTTTTCCCGGTAATCCGTATTTGCT (site CTATCATCTAG),1.22
6,CGATCATCATGGACCGGTTTTCCCGGTAATCCGTATTTGCT (site CTATCATCTCG),0.0222
7,CGATCATCATGGACCGGTTTTCCCGGTAATCCGTATTTGCT (site CTATCCTCTAG),0
8,CGATCATCATGGACCGGTTTTCCCGGTAATCCGTATTTGCT (site CTCTCATCTAG),0.961
9,CGATCATCATGGACCGGTTTTCCCGGTAATCCGTATTTGCT (site GAATCATCTAG),0
10,CGATCATCATGGACCGGTTTTCCCGGTAATCCGTATTTGCT (site GGAACATCTAG),0.00516
11,CGATCATCATGGACCGGTTTTCCCGGTAATCCGTATTTGCT (site GGATCACCTAG),0.00443
12,CGATCATCATGGACCGGTTTTCCCGGTAATCCGTATTTGCT (site GGATCATCTAG),0.606
13,CGATCATCATGGACCGGTTTTCCCGGTAATCCGTATTTGCT (site GGATCATCTAT),0.0067
14,CGATCATCATGGACCGGTTTTCCCGGTAATCCGTATTTGCT (site GGATCATCTGG),0
15,CGATCATCATGGACCGGTTTTCCCGGTAATCCGTATTTGCT (site GGATCGTCTAG),0.00614
16,CGATCATCATGGACCGGTTTTCCCGGTAATCCGTATTTGCT (site GGATGATCTAG),0
17,CGATCATCATGGACCGGTTTTCCCGGTAATCCGTATTTGCT (site GGTTCATCTAG),0
18,CGATCATCATGGACCGGTTTTCCCGGTAATCCGTATTTGCT (site TGACCATCTAG),1.21
19,CGATCATCATGGACCGGTTTTCCCGGTAATCCGTATTTGCT (site TGATAATCTAG),0
20,CGATCATCATGGACCGGTTTTCCCGGTAATCCGTATTTGCT (site TGATCAACTAG),0
21,CGATCATCATGGACCGGTTTTCCCGGTAATCCGTATTTGCT (site TGATCATCTAC),0.00378
22,CGATCATCATGGACCGGTTTTCCCGGTAATCCGTATTTGCT (site TGATCATCTAG),0.864
